Assay results taken from US11000033B2, “Ketone or oxime compound, and herbicide” (NISSAN CHEMICAL CORPORATION, priority 2014, dated 2021).

Assays:
Type in all cases: in vivo
Lolium multiflorum Lam. = test: Test Example 4: herbicidal effect by soil treatment (symbol K); details: for K (Lolium multiflorum Lam.) herbicidal effect grade: application herbicide amount 320 g/ha
How it was run: (§1)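 Seeds were sown in sterilized diluvial soil, covered with about 1.5 cm of soil, and the soil surface was sprayed with a water-diluted emulsion of the compound at a predetermined rate. Plants grew in a greenhouse at 25° C. to 30° C.; effects were scored visually 3 weeks after application.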

Setaria viridis = test: Test Example 4: herbicidal effect by soil treatment (symbol G); details: for G (Setaria viridis) herbicidal effect grade: application herbicide amount 320 g/ha
How it was run: as §1

Digitaria ciliaris = test: Test Example 5: herbicidal effect by foliage application, plastic box (symbol F); details: 320 g/ha, 3 weeks after application
How it was run: (§2)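 Visual herbicidal score, taken three weeks post-application, of seedlings sprayed on the foliage with water-diluted emulsion at a predetermined amount; plants were 14 days old, greenhouse-raised at 25° C. to 30° C.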

Apera spica-venti = test: Test Example 5: herbicidal effect by foliage application, plastic box (symbol L); details: 320 g/ha, 3 weeks after application
How it was run: as §2

[1] = system: Echinochloa crus-galli var. crus-galli; test: Test Example 4: herbicidal effect by soil treatment (symbol H); details: for H (Echinochloa crus-galli var. crus-galli) herbicidal effect grade: application herbicide amount 320 g/ha
How it was run: as §1

wheat [2] = test: Test Example 5: effect on crop by foliage application, plastic box (symbol e); details: 320 g/ha, 3 weeks after application
How it was run: (§3)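 Box culture: sterile diluvial soil, seeds spot-sown, ~1.5 cm cover, raised under glass at 25–30° C.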

rapeseed = test: Test Example 5: effect on crop by foliage application, plastic box (symbol g); details: 320 g/ha, 3 weeks after application
How it was run: as §3

soybean = test: Test Example 5: effect on crop by foliage application, plastic box (symbol d); details: 320 g/ha, 3 weeks after application
How it was run: as §3

rice = test: Test Example 4: effect on crop by soil treatment (symbol b); details: for b (directly sowed rice plant) effect on crop grade: application herbicide amount 320 g/ha
How it was run: (§4)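 Crop seeds, among them rice, wheat, beet and rapeseed, were sown in sterilized diluvial soil and covered with about 1.5 cm of soil. Boxes were kept in a greenhouse at 25° C. to 30° C. for plant growth.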

Scirpus juncoides = test: Test Example 1: herbicidal activity, application before weed generation in submerged conditions (symbol B); details: application herbicide amount 320 g/ha
How it was run: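 Ratings (5: ≥90%, near complete withering; 4: 70–<90%; 3: 40–<70%; 2: 20–<40%; 1: 5–<20%; 0: ≤5%) were assigned 3 weeks after the diluted emulsion was applied to the water surface of freshly sown, submerged pots.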

corn [3] = test: Test Example 4: effect on crop by soil treatment (symbol c); details: for c (corn) effect on crop grade: application herbicide amount 320 g/ha
How it was run: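 Greenhouse culture at 25° C. to 30° C. followed sowing of seed in spots on sterilized diluvial soil with a soil cover close to 1.5 cm thick.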

corn [4] = test: Test Example 5: effect on crop by foliage application, plastic box (symbol c); details: 320 g/ha, 3 weeks after application
How it was run: as §3

wheat [5] = test: Test Example 4: effect on crop by soil treatment (symbol e); details: for e (wheat) effect on crop grade: application herbicide amount 320 g/ha
How it was run: as §4

Alopecurus myosuroides = test: Test Example 4: herbicidal effect by soil treatment (symbol J); details: for J (Alopecurus myosuroides) herbicidal effect grade: application herbicide amount 320 g/ha
How it was run: as §1

Veronica persica = test: Test Example 5: herbicidal effect by foliage application, plastic box (symbol R); details: 320 g/ha, 3 weeks after application
How it was run: as §2

[6] = system: Echinochloa crus-galli var. crus-galli; test: Test Example 3: herbicidal effect by foliage application, Wagner pot (symbol H); details: application herbicide amount 320 g/ha
How it was run: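 Post-emergence, paddy-type test: seedlings 14 d old in shallow-flooded (0.1–0.5 cm) alluvial soil, 25–30 °C greenhouse. Emulsion diluted to target rate, sprayed on leaves. Read-out: visual effect on each species at 3 weeks, per set criteria.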

Stellaria media = test: Test Example 4: herbicidal effect by soil treatment (symbol P); details: for P (Stellaria media) herbicidal effect grade: application herbicide amount 320 g/ha
How it was run: as §1

| Compound | K (Lolium multiflorum Lam.) herbicidal effect grade (Lolium multiflorum Lam.) | G (Setaria viridis) herbicidal effect grade (Setaria viridis) | F: Digitaria ciliaris, herbicidal effect grade (Digitaria ciliaris) | L: Apera spica-venti, herbicidal effect grade (Apera spica-venti) | H (Echinochloa crus-galli var. crus-galli) herbicidal effect grade [1] | e: wheat, effect on crop grade (wheat [2]) | g: rapeseed, effect on crop grade (rapeseed) | d: soybean, effect on crop grade (soybean) | b (directly sowed rice plant) effect on crop grade (rice) | Herbicidal effect grade, B: Scirpus juncoides (Scirpus juncoides) | c (corn) effect on crop grade (corn [3]) | c: corn, effect on crop grade (corn [4]) | e (wheat) effect on crop grade (wheat [5]) | J (Alopecurus myosuroides) herbicidal effect grade (Alopecurus myosuroides) | R: Veronica persica, herbicidal effect grade (Veronica persica) | herbicidal effect on H (Echinochloa crus-galli var. crus-galli), grade 0-5 [6] | P (Stellaria media) herbicidal effect grade (Stellaria media) | further results |
| --- | --- | --- | --- | --- | --- | --- | --- | --- | --- | --- | --- | --- | --- | --- | --- | --- | --- | --- |
| CON=C(CC1CC(O)=C(c2c(C)cc(C)cc2C)C1=O)c1ccccc1 (centres unmarked) [1-047] | 3 (Herbicidal ratio of 40% or higher and lower than 70%) | 0 (Herbicidal ratio of 5% or lower (almost no effect)) | 1 (Herbicidal ratio of 5% or higher and lower than 20%) | 1 (Herbicidal ratio of 5% or higher and lower than 20%) | 3 (Herbicidal ratio of 40% or higher and lower than 70%) | 0 (Herbicidal ratio of 5% or lower (almost no effect)) | 3 (Herbicidal ratio of 40% or higher and lower than 70%) | 0 (Herbicidal ratio of 5% or lower (almost no effect)) | 4 (Herbicidal ratio of 70% or higher and lower than 90%) | 0 (Herbicidal ratio of 5% or lower (almost no effect)) | 0 (Herbicidal ratio of 5% or lower (almost no effect)) | 0 (Herbicidal ratio of 5% or lower (almost no effect)) | 0 (Herbicidal ratio of 5% or lower (almost no effect)) | 0 (Herbicidal ratio of 5% or lower (almost no effect)) | 0 (Herbicidal ratio of 5% or lower (almost no effect)) | 1 (Herbicidal ratio of 5% or higher and lower than 20%) | 0 (Herbicidal ratio of 5% or lower (almost no effect)) | – |
| CCCCCCCCC(=O)OC1=C(c2c(C)cc(C)cc2C)C(=O)C(CC(C)=NOC)C1 (centres unmarked) [1-033] | 5 (Herbicidal ratio of 90% or more (almost completely withered)) | 5 (Herbicidal ratio of 90% or more (almost completely withered)) | 5 (Herbicidal ratio of 90% or more (almost completely withered)) | 5 (Herbicidal ratio of 90% or more (almost completely withered)) | 5 (Herbicidal ratio of 90% or more (almost completely withered)) | 5 (Herbicidal ratio of 90% or more (almost completely withered)) | 4 (Herbicidal ratio of 70% or higher and lower than 90%) | 4 (Herbicidal ratio of 70% or higher and lower than 90%) | 5 (Herbicidal ratio of 90% or more (almost completely withered)) | 4 (Herbicidal ratio of 70% or higher and lower than 90%) | 4 (Herbicidal ratio of 70% or higher and lower than 90%) | 4 (Herbicidal ratio of 70% or higher and lower than 90%) | 5 (Herbicidal ratio of 90% or more (almost completely withered)) | 5 (Herbicidal ratio of 90% or more (almost completely withered)) | 2 (Herbicidal ratio of 20% or higher and lower than 40%) | 5 (Herbicidal ratio of 90% or more (almost completely withered)) | 0 (Herbicidal ratio of 5% or lower (almost no effect)) | – |
| CON=C(C)CC1CC(O)=C(c2c(C)cc(C)cc2C)C1=O (centres unmarked) [1-002, 3-hydroxy-2-mesityl-5-{2-(methoxyimino)propyl}cyclopent-2-enone] | 5 (Herbicidal ratio of 90% or more (almost completely withered)) | 3 (Herbicidal ratio of 40% or higher and lower than 70%) | 5 (Herbicidal ratio of 90% or more (almost completely withered)) | 5 (Herbicidal ratio of 90% or more (almost completely withered)) | 5 (Herbicidal ratio of 90% or more (almost completely withered)) | 5 (Herbicidal ratio of 90% or more (almost completely withered)) | 5 (Herbicidal ratio of 90% or more (almost completely withered)) | 4 (Herbicidal ratio of 70% or higher and lower than 90%) | 5 (Herbicidal ratio of 90% or more (almost completely withered)) | 4 (Herbicidal ratio of 70% or higher and lower than 90%) | 4 (Herbicidal ratio of 70% or higher and lower than 90%) | 5 (Herbicidal ratio of 90% or more (almost completely withered)) | 4 (Herbicidal ratio of 70% or higher and lower than 90%) | 5 (Herbicidal ratio of 90% or more (almost completely withered)) | 4 (Herbicidal ratio of 70% or higher and lower than 90%) | 5 (Herbicidal ratio of 90% or more (almost completely withered)) | 3 (Herbicidal ratio of 40% or higher and lower than 70%) | – |
| CON=C(C)CC1CC(OC(=O)COCC(F)(F)F)=C(c2c(C)cc(C)cc2C)C1=O (centres unmarked) [1-092] | – | – | – | – | – | – | – | – | – | 5 (Herbicidal ratio of 90% or more (almost completely withered)) | – | – | – | – | – | 5 (Herbicidal ratio of 90% or more (almost completely withered)) | – | K: Lolium multiflorum Lam., herbicidal effect grade (Lolium multiflorum Lam.; 320 g/ha): 5 (Herbicidal ratio of 90% or more (almost completely withered)); G: Setaria viridis, herbicidal effect grade (Setaria viridis; 320 g/ha): 5 (Herbicidal ratio of 90% or more (almost completely withered)); F: Digitaria ciliaris, herbicidal effect (criteria 0-5) (Digitaria ciliaris): 5 (Herbicidal ratio of 90% or more (almost completely withered)); L: Apera spica-venti, herbicidal effect (criteria 0-5) (Apera spica-venti): 5 (Herbicidal ratio of 90% or more (almost completely withered)); H: Echinochloa crus-galli var. crus-galli, herbicidal effect grade ([1]; 320 g/ha): 5 (Herbicidal ratio of 90% or more (almost completely withered)); e: wheat, effect on crop (criteria 0-5) (wheat [2]): 4 (Herbicidal ratio of 70% or higher and lower than 90%); g: rapeseed, effect on crop (criteria 0-5) (rapeseed): 4 (Herbicidal ratio of 70% or higher and lower than 90%); d: soybean, effect on crop (criteria 0-5) (soybean): 0 (Herbicidal ratio of 5% or lower (almost no effect)); b: directly sowed rice plant, effect grade on crop (rice; 320 g/ha): 5 (Herbicidal ratio of 90% or more (almost completely withered)); c: corn, effect grade on crop (corn [3]; 320 g/ha): 5 (Herbicidal ratio of 90% or more (almost completely withered)); c: corn, effect on crop (criteria 0-5) (corn [4]): 5 (Herbicidal ratio of 90% or more (almost completely withered)); e: wheat, effect grade on crop (wheat [5]; 320 g/ha): 4 (Herbicidal ratio of 70% or higher and lower than 90%); J: Alopecurus myosuroides, herbicidal effect grade (Alopecurus myosuroides; 320 g/ha): 4 (Herbicidal ratio of 70% or higher and lower than 90%); R: Veronica persica, herbicidal effect (criteria 0-5) (Veronica persica): 0 (Herbicidal ratio of 5% or lower (almost no effect)); P: Stellaria media, herbicidal effect grade (Stellaria media; 320 g/ha): 0 (Herbicidal ratio of 5% or lower (almost no effect)) |
